This note sets out measurements from patent publication US12404241B2 (Celgene Corporation, priority 2018, dated 2025).

The structures appear in SMILES notation.

For this assay, the target named is T1, AR (Homo sapiens, UniProt P10275).
T1 construct: endogenous in cells; host or cells: VCaP cells
T1 sequence (P10275 1-920): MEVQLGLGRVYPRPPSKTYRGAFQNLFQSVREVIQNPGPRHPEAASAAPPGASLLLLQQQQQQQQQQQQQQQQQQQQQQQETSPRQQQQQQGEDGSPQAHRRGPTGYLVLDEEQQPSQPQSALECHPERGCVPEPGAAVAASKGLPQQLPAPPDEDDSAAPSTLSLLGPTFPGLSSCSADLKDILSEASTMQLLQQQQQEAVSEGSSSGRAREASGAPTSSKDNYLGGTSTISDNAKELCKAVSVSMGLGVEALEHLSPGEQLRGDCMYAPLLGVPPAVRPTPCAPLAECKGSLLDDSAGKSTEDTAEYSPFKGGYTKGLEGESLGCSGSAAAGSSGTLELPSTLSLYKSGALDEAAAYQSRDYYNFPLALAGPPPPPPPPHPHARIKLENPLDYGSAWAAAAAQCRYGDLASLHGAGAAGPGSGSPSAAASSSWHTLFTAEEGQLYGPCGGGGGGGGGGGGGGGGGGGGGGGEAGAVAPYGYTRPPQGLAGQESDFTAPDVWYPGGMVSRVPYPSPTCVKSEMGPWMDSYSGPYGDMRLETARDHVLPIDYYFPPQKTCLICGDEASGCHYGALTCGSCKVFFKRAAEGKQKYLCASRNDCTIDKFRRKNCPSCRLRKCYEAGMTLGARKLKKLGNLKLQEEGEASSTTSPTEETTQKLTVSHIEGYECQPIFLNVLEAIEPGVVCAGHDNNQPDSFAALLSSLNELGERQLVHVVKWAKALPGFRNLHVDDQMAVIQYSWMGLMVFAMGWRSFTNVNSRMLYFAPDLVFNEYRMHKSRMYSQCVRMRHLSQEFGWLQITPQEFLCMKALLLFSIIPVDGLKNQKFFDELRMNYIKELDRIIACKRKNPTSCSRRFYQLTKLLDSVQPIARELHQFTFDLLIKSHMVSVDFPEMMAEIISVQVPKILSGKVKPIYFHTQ
As to the kind of experiment: VCAP AR Degradation Assay. In kind it is cell-based. As to conditions: for Y (AR degradation efficiency, % of DMSO control): class symbols *; for DC50: class symbols A-C, read-out: DC50. The method in brief: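 VCaP cells treated 24 h at 37 °C with a 10-point 1:3 series (top 5 μM final; 0.1% DMSO control). Lysate AR measured by sandwich ELISA, normalized to DMSO as percent of control; DC50, EC50 and lowest AR level (Y) from four-parameter logistic fit.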

What is called DC50 is the midpoint of the concentration-degradation curve. With `CCc1c(OCCN2C[C@@H](C)N(CC(=O)Nc3cccc(NC4CCC(=O)NC4=O)c3)[C@@H](C)C2)ccc(N2C(=S)N(c3ccc(C#N)c(C(F)(F)F)c3)C(=O)C2(C)C)c1F` (stereo partly drawn) [Example 271, 2-((2S,6R)-4-(2-(4-(3-(4-cyano-3-(trifluoromethyl)phenyl)-5,5-dimethyl-4-oxo-2-thioxoimidazolidin-1-yl)-2-ethyl-3-fluorophenoxy)ethyl)-2,6-dimethylpiperazin-1-yl)-N-(3-(2,6-dioxopiperidin-3-ylamino)phenyl)acetamide], the “Y (AR degradation efficiency, % of DMSO control)” value was “* (0<Y<=25%)” and the DC50 was less than 100 nM.

For `C[C@@H]1CN(CCOc2ccc(N3C(=S)N(c4ccc(C#N)c(C(F)(F)F)c4)C(=O)C3(C)C)cc2C2CC2)CCN1CC(=O)Nc1cccc(NC2CCC(=O)NC2=O)c1` (stereo partly drawn) [Example 272, 2-((R)-4-(2-(4-(3-(4-cyano-3-(trifluoromethyl)phenyl)-5,5-dimethyl-4-oxo-2-thioxoimidazolidin-1-yl)-2-cyclopropylphenoxy)ethyl)-2-methylpiperazin-1-yl)-N-(3-(2,6-dioxopiperidin-3-ylamino)phenyl)acetamide], the “Y (AR degradation efficiency, % of DMSO control)” value was “* (0<Y<=25%)” and the DC50 is less than 100 nM.

In the case of `CCc1cc(N2C(=S)N(c3ccc(C#N)c(C(F)(F)F)c3)C(=O)C2(C)C)ccc1CCCN1C[C@@H](C)N(CC(=O)Nc2cccc(NC3CCC(=O)NC3=O)c2)C[C@H]1C` (stereo partly drawn) [Example 273, 2-((2R,5R)-4-(3-(4-(3-(4-cyano-3-(trifluoromethyl)phenyl)-5,5-dimethyl-4-oxo-2-thioxoimidazolidin-1-yl)-2-ethylphenyl)propyl)-2,5-dimethylpiperazin-1-yl)-N-(3-(2,6-dioxopiperidin-3-ylamino)phenyl)acetamide], the “Y (AR degradation efficiency, % of DMSO control)” value is “* (0<Y<=25%)” and the half-maximal degradation concentration (DC50) was less than 100 nM.

`CCc1cc(N2C(=S)N(c3ccc(C#N)c(C(F)(F)F)c3)C(=O)C2(C)C)ccc1OCCN1CCN([C@H](C)C(=O)Nc2cccc(NC3CCC(=O)NC3=O)c2)[C@@H](C)C1` (stereo partly drawn) [Example 274, (2R)-2-((S)-4-(2-(4-(3-(4-cyano-3-(trifluoromethyl)phenyl)-5,5-dimethyl-4-oxo-2-thioxoimidazolidin-1-yl)-2-ethylphenoxy)ethyl)-2-methylpiperazin-1-yl)-N-(3-(2,6-dioxopiperidin-3-ylamino)phenyl)propanamide]: the “Y (AR degradation efficiency, % of DMSO control)” value was “* (0<Y<=25%)” and the DC50 is less than 100 nM.

For `CCc1cc(N2C(=S)N(c3ccc(C#N)c(C(F)(F)F)c3)C(=O)C2(C)C)ccc1OCCN1CCN([C@@H](C)C(=O)Nc2cccc(NC3CCC(=O)NC3=O)c2)[C@@H](C)C1` (stereo partly drawn) [Example 275, (2S)-2-((S)-4-(2-(4-(3-(4-cyano-3-(trifluoromethyl)phenyl)-5,5-dimethyl-4-oxo-2-thioxoimidazolidin-1-yl)-2-ethylphenoxy)ethyl)-2-methylpiperazin-1-yl)-N-(3-(2,6-dioxopiperidin-3-ylamino)phenyl)propanamide], the “Y (AR degradation efficiency, % of DMSO control)” value is listed as “* (0<Y<=25%)” and the DC50 was less than 100 nM.

Consider `C[C@@H]1CN(CCOc2ccc(N3C(=S)N(c4ccc(C#N)c(C(F)(F)F)c4)C(=O)C3(C)C)cc2Cl)CCN1CC(=O)Nc1cccc(NC2CCC(=O)NC2=O)c1` (stereo partly drawn) [Example 276, 2-((R)-4-(2-(2-chloro-4-(3-(4-cyano-3-(trifluoromethyl)phenyl)-5,5-dimethyl-4-oxo-2-thioxoimidazolidin-1-yl)phenoxy)ethyl)-2-methylpiperazin-1-yl)-N-(3-(2,6-dioxopiperidin-3-ylamino)phenyl)acetamide], for which the “Y (AR degradation efficiency, % of DMSO control)” value is on record as “* (0<Y<=25%)” and the 50% degradation concentration (DC50) is less than 100 nM.

`C[C@@H]1CN(CCOc2ccc(N3C(=S)N(c4ccc(C#N)c(C(F)(F)F)c4)C(=O)C3(C)C)cc2F)CCN1CC(=O)Nc1cccc(NC2CCC(=O)NC2=O)c1` (stereo partly drawn) [Example 277, 2-((R)-4-(2-(4-(3-(4-cyano-3-(trifluoromethyl)phenyl)-5,5-dimethyl-4-oxo-2-thioxoimidazolidin-1-yl)-2-fluorophenoxy)ethyl)-2-methylpiperazin-1-yl)-N-(3-(2,6-dioxopiperidin-3-ylamino)phenyl)acetamide]: the “Y (AR degradation efficiency, % of DMSO control)” value was “*** (35%<Y<50%)” and the half-maximal degradation concentration (DC50) is less than 100 nM.

As to `C[C@@H]1CN(CCOc2ccc(N3C(=S)N(c4ccc(C#N)c(C(F)(F)F)c4)C(=O)C3(C)C)cc2F)C[C@H](C)N1CC(=O)Nc1cccc(NC2CCC(=O)NC2=O)c1` (stereo partly drawn) [Example 278, 2-((2S,6R)-4-(2-(4-(3-(4-cyano-3-(trifluoromethyl)phenyl)-5,5-dimethyl-4-oxo-2-thioxoimidazolidin-1-yl)-2-fluorophenoxy)ethyl)-2,6-dimethylpiperazin-1-yl)-N-(3-(2,6-dioxopiperidin-3-ylamino)phenyl)acetamide], the “Y (AR degradation efficiency, % of DMSO control)” value is recorded as “* (0<Y<=25%)” and the 50% degradation concentration (DC50) is less than 100 nM.

Turning to `CCc1cc(N2C(=S)N(c3ccc(C#N)c(C(F)(F)F)c3)C(=O)C2(C)C)ccc1CCCN1CCN(CC(=O)Nc2cccc(NC3CCC(=O)NC3=O)c2)[C@@H](C)C1` (stereo partly drawn) [Example 279, 2-((S)-4-(3-(4-(3-(4-cyano-3-(trifluoromethyl)phenyl)-5,5-dimethyl-4-oxo-2-thioxoimidazolidin-1-yl)-2-ethylphenyl)propyl)-2-methylpiperazin-1-yl)-N-(3-(2,6-dioxopiperidin-3-ylamino)phenyl)acetamide], the “Y (AR degradation efficiency, % of DMSO control)” value is recorded as “* (0<Y<=25%)” and the half-maximal degradation concentration (DC50) is less than 100 nM.

As to `CCc1cc(N2C(=S)N(c3ccc(C#N)c(C(F)(F)F)c3)C(=O)C2(C)C)ccc1OCCN1CCN([C@H](C)C(=O)Nc2cccc(NC3CCC(=O)NC3=O)c2)[C@H](C)C1` (stereo partly drawn) [Example 280, (2R)-2-((R)-4-(2-(4-(3-(4-cyano-3-(trifluoromethyl)phenyl)-5,5-dimethyl-4-oxo-2-thioxoimidazolidin-1-yl)-2-ethylphenoxy)ethyl)-2-methylpiperazin-1-yl)-N-(3-(2,6-dioxopiperidin-3-ylamino)phenyl)propanamide], the “Y (AR degradation efficiency, % of DMSO control)” value is on record as “*** (35%<Y<50%)” and the 50% degradation concentration (DC50) was in the range of 100 to 500 nM.

Turning to `CCc1cc(N2C(=S)N(c3ccc(C#N)c(C(F)(F)F)c3)C(=O)C2(C)C)ccc1OCCN1CCN([C@@H](C)C(=O)Nc2cccc(NC3CCC(=O)NC3=O)c2)[C@H](C)C1` (stereo partly drawn) [Example 281, (2S)-2-((R)-4-(2-(4-(3-(4-cyano-3-(trifluoromethyl)phenyl)-5,5-dimethyl-4-oxo-2-thioxoimidazolidin-1-yl)-2-ethylphenoxy)ethyl)-2-methylpiperazin-1-yl)-N-(3-(2,6-dioxopiperidin-3-ylamino)phenyl)propanamide], the “Y (AR degradation efficiency, % of DMSO control)” value is given as “* (0<Y<=25%)” and the half-maximal degradation concentration (DC50) was less than 100 nM.

For the molecule `C[C@@H]1CN(CCOc2ccc(N3C(=S)N(c4ccc(C#N)c(C(F)(F)F)c4)C(=O)C3(C)C)cc2Cl)C[C@H](C)N1CC(=O)Nc1cccc(NC2CCC(=O)NC2=O)c1` (stereo partly drawn) [Example 282, 2-((2S,6R)-4-(2-(2-chloro-4-(3-(4-cyano-3-(trifluoromethyl)phenyl)-5,5-dimethyl-4-oxo-2-thioxoimidazolidin-1-yl)phenoxy)ethyl)-2,6-dimethylpiperazin-1-yl)-N-(3-(2,6-dioxopiperidin-3-ylamino)phenyl)acetamide], the “Y (AR degradation efficiency, % of DMSO control)” value is recorded as “* (0<Y<=25%)” and the DC50 is less than 100 nM.
